{"source": "patent US5109133A", "about": "“Antibiotic trienomycins and their production” (priority 1985, dated 1992)", "key": {"[1]": {"test_system": "HeLa S3 cells", "experiment": "Cytocidal action on HeLa S3 cells", "settings": "for growth inhibitory activities: HeLa S3 cells"}, "[2]": {"test_system": "fungi", "experiment": "Antifungal activity (in words)", "assay_type": "cell-based", "settings": "trienomycins"}, "[3]": {"test_system": "sarcoma-180", "experiment": "Antitumor activity, life prolongation in sarcoma-180-carcinoma-bearing ICR mice", "assay_type": "in vivo", "settings": "intraperitoneal, 1-5 days and 7-11 days", "source_text": "Trienomycin A, B or C is administrated intraperitoneally in sarcoma-180-carcinoma-bearing ICR mice for 1-5 days and 7-11 days. The life prolongation effects are observed as shown in the following: […]"}, "[4]": {"experiment": "Nature (acidity)", "assay_type": "physicochemical"}, "[5]": {"test_system": "sarcoma-180 carcinoma cells", "experiment": "Growth inhibition of sarcoma-180 carcinoma cells", "assay_type": "cell-based"}, "[6]": {"experiment": "Solubility", "assay_type": "physicochemical"}, "[7]": {"experiment": "Stability", "assay_type": "physicochemical"}, "[8]": {"test_system": "Piricularia oryzae KF 180", "experiment": "microbe, parasite or virus in culture", "assay_type": "cell-based", "settings": "at 1 mg/ml; read-out: Inhibitory zone"}, "[9]": {"test_system": "fungi", "settings": "various fungi; known antibiotics; cited from earlier work"}, "[10]": {"settings": "chloroform, dichloromethane, tetrahydrofuran, ethyl acetate, butyl acetate, acetone, methanol, ethanol"}, "[11]": {"settings": "acidic condition at ambient temperature"}}, "note": "“Also recorded” adds a separate entry of the source. Where two headings read alike, the source gives them in different places.", "data": [{"smiles": "CCC(C)C(=O)NC(C)C(=O)OC1CC=CC=CC=CC(OC)CC(=O)Nc2cc(O)cc(c2)CCC=C(C)C(O)C1C", "note": "(stereo not drawn) [Trienomycin C]", "values": [{"measurement": "death of the HeLa S3 cells", "setting": "[1]; 2.0 μg/ml", "value": "death of the HeLa S3 cells"}, {"measurement": "growth inhibitory activities", "setting": "[1]", "value": "growth inhibitory activities"}, {"measurement": "antifungal activity", "setting": "[2]", "value": "exhibit antifungal activity against some kind of fungi"}, {"measurement": "Life Prolongation Ratio", "setting": "[3]; 10 mg/kg/day", "value": 50, "unit": "%"}, {"measurement": "Life Prolongation Ratio", "setting": "[3]; 20 mg/kg/day", "value": 110, "unit": "%"}, {"measurement": "Nature", "setting": "[4]", "value": "weakly acidic substance; also recorded: weak acidic substances"}, {"measurement": "growth inhibitory activities", "setting": "[5]", "value": "growth inhibitory activities"}, {"measurement": "Solubility", "setting": "[6]; [10]", "value": "Soluble"}, {"measurement": "Solubility", "setting": "[6]; hexane, water", "value": "Insoluble"}, {"measurement": "Stability", "setting": "[7]; [11]", "value": "Stable"}, {"measurement": "Stability", "setting": "[7]; alkaline condition over pH 10", "value": "Instable"}, {"measurement": "zone of inhibition at 1000 µg/mL", "setting": "[8]", "value": 12, "unit": "mm"}]}, {"smiles": "COC1C=CC=CC=CCC(OC(=O)C(C)NC(=O)CC(C)C)C(C)C(O)C(C)=CCCc2cc(O)cc(c2)NC(=O)C1", "note": "(stereo not drawn) [Trienomycin B]", "values": [{"measurement": "death of the HeLa S3 cells", "setting": "[1]; 2.0 μg/ml", "value": "death of the HeLa S3 cells"}, {"measurement": "growth inhibitory activities", "setting": "[1]", "value": "growth inhibitory activities"}, {"measurement": "antifungal activity", "setting": "[2]", "value": "exhibit antifungal activity against some kind of fungi"}, {"measurement": "Life Prolongation Ratio", "setting": "[3]; 10 mg/kg/day", "value": 45, "unit": "%"}, {"measurement": "Life Prolongation Ratio", "setting": "[3]; 20 mg/kg/day", "value": 80, "unit": "%"}, {"measurement": "Nature", "setting": "[4]", "value": "weakly acidic substance; also recorded: weak acidic substances"}, {"measurement": "growth inhibitory activities", "setting": "[5]", "value": "growth inhibitory activities"}, {"measurement": "Solubility", "setting": "[6]; [10]", "value": "Soluble"}, {"measurement": "Solubility", "setting": "[6]; hexane, water", "value": "Insoluble"}, {"measurement": "Stability", "setting": "[7]; [11]", "value": "Stable"}, {"measurement": "Stability", "setting": "[7]; alkaline condition over pH 10", "value": "Instable"}, {"measurement": "zone of inhibition at 1000 µg/mL", "setting": "[8]", "value": 15, "unit": "mm"}]}, {"smiles": "COC1C=CC=CC=CCC(OC(=O)C(C)NC(=O)C2CCCCC2)C(C)C(O)C(C)=CCCc2cc(O)cc(c2)NC(=O)C1", "note": "(stereo not drawn) [Trienomycin A]", "values": [{"measurement": "death of the HeLa S3 cells", "setting": "[1]; 1.0 μg/ml", "value": "death of the HeLa S3 cells"}, {"measurement": "growth inhibitory activities", "setting": "[1]", "value": "growth inhibitory activities"}, {"measurement": "antifungal activity", "setting": "[2]", "value": "exhibit antifungal activity against some kind of fungi"}, {"measurement": "Life Prolongation Ratio", "setting": "[3]; 10 mg/kg/day", "value": 33, "unit": "%"}, {"measurement": "Life Prolongation Ratio", "setting": "[3]; 20 mg/kg/day", "value": 76, "unit": "%"}, {"measurement": "Nature", "setting": "[4]", "value": "weakly acidic substance; also recorded: weak acidic substances"}, {"measurement": "growth inhibitory activities", "setting": "[5]", "value": "growth inhibitory activities"}, {"measurement": "Solubility", "setting": "[6]; [10]", "value": "Soluble"}, {"measurement": "Solubility", "setting": "[6]; hexane, water", "value": "Insoluble"}, {"measurement": "Stability", "setting": "[7]; [11]", "value": "Stable"}, {"measurement": "Stability", "setting": "[7]; alkaline condition over pH 10", "value": "Instable"}, {"measurement": "zone of inhibition at 1000 µg/mL", "setting": "[8]", "value": 20, "unit": "mm"}]}, {"smiles": "COC1C=CC=CC=CCC(OC(=O)C(C)NC(=O)C2CCCCC2)C(C)C(O)C(C)=CCCc2cc(O)cc(c2O)NC(=O)C1", "note": "(stereo not drawn) [mycotrienin II]", "values": [{"measurement": "antifungal activity", "setting": "[9]", "value": "exhibit antifungal activity against various fungi"}]}, {"smiles": "CO[C@@H]1/C=C/C=C/C=C\\C[C@H](OC(=O)[C@@H](C)NC(=O)CC(C)C)[C@@H](C)[C@H](O)/C(C)=C/CCC2=CC(=O)C=C(NC(=O)C1)C2=O", "note": "[ansatrienin A3]", "values": [{"measurement": "antifungal activity", "setting": "[9]", "value": "exhibit antifungal activity against various fungi"}]}, {"smiles": "COC1C=CC=CC=CCC(OC(=O)C(C)NC(=O)C2CCCCC2)C(C)C(O)C(C)=CCCC2=CC(=O)C=C(NC(=O)C1)C2=O", "note": "(stereo not drawn) [mycotrienin I]", "values": [{"measurement": "antifungal activity", "setting": "[9]", "value": "exhibit antifungal activity against various fungi"}]}]}
